{"source": "patent US20250325712A1", "about": "“TARGETING LIGANDS FOR DISEASE-TARGETED IMAGING AGENTS AND METHODS OF USE THEREFOR” (Curadel Surgical Innovations, Inc., priority 2024, published 2025)", "experiment": "Stability of dyes in 37° C. buffered fetal bovine serum (normalized absorbance and absorbance spectra over time)", "assay_type": "in vitro ADME", "details": "compared to ZW800-1", "procedure": "The normalized absorbance of ZW800-1 and ZW700-1c in 37° C. buffered FBS, pH 7.4 over time from 0 to 60 hours are shown in FIGS. 2-4.", "data": [{"smiles": "CC1(C)C(/C=C/C(=C/C=C2/N(CCC[N+](C)(C)C)c3ccc(S(=O)(=O)[O-])cc3C2(C)C)c2ccc(CCC(=O)[O-])cc2)=[N+](CCC[N+](C)(C)C)c2ccc(S(=O)(=O)[O-])cc21", "note": "[ZW700-1c]", "values": [{"measurement": "stability: normalized absorbance over time", "setting": "37° C. buffered FBS, pH 7.4, 0 to 60 hours", "result": "extreme stability"}, {"measurement": "stability over time: changes in absorption spectra during metabolism in warm serum", "setting": "warm serum (37° C. buffered FBS, pH 7.4, 0 to 48 hours)", "result": "high stability"}]}]}
